Results published in US20220079913A1, “DIHYDROMYRICETIN WITH ANTI-ALCOHOLIC EFFECT” (Shanghai Spark Pharmaceutical Co., Ltd., priority 2020, published 2022).

What was measured:
[1] = Acute toxicity of dihydromyricetin, single oral gavage; type: in vivo, mice; settings: ICR, mouse, in vivo, po
Experimental: (§1) Observation of the Acute Toxicity of Dihydromyricetin on ICR Mice
(§2) Preparation of test substance: weighing the test substance of the required quality; adding sterile water for injection to prepare it to the required concentration; mixing well before administration.
(§3) Animal breeds and strains: ICR mice
(§4) After the adaptation period, 30 experimental animals were divided into 3 groups, half male and […]. After fasting for 12 hours, according to the body weight, the control reagents or the test substance were administered orally respectively. The animal's clinical symptoms after administration are observed, with abnormal records. The animals were weighed before the administration and on the 1, 3, 5, and 7 days after the administration. At the end of the experiment, the animals were euthanized by inhalation of excessive CO2

ICR mice [2] = test: as above; type: in vivo
Experimental: as §1, §2, §3, §4

ICR mice [3] = test: Anti-alcoholic (hangover) test; type: in vivo; settings: for Number of deaths / Number of drunks: 20 animals; for Number of deaths / Number of drunks / Drunkenness rate / Mortality rate: after 10 hours of drinking
Experimental: as §2, §3
60 experimental animals were divided into 3 groups, half male and […]. After fasting for 12 hours, according to the body weight, the control reagents the test substance were administered orally respectively.

[4] = cited from earlier work

In the case of `O=C1c2c(O)cc(O)cc2OC(c2cc(O)c(O)c(O)c2)C1O` [Dihydromyricetin, (2R,3R)-3,5,7-trihydroxy-2-(3,4,5-trihydroxyphenyl) benzodihydropyran-4-one], the MTD at 7 days [1] was 5000 mg/kg, the Mortality rate (ICR mice [2]; 3500 mg/kg i.g. once, day 0) was 0% and the Mortality rate (ICR mice [2]; 3500 mg/kg i.g. once, day 1) was 0%. It also gave a Mortality rate (ICR mice [2]; 3500 mg/kg i.g. once, day 2) of 0%, a Mortality rate (ICR mice [2]; 3500 mg/kg i.g. once, day 3) of 0% and a Mortality rate (ICR mice [2]; 3500 mg/kg i.g. once, day 4) of 0%. For the same compound, the Mortality rate (ICR mice [2]; 3500 mg/kg i.g. once, day 5) was 0%, the Mortality rate (ICR mice [2]; 3500 mg/kg i.g. once, day 6) was 0% and the Mortality rate (ICR mice [2]; 3500 mg/kg i.g. once, day 7) was 0%. The Mortality rate (ICR mice [2]; 5000 mg/kg i.g. once, day 0) was 0%, the Mortality rate (ICR mice [2]; 5000 mg/kg i.g. once, day 1) was 0% and the Mortality rate (ICR mice [2]; 5000 mg/kg i.g. once, day 2) was 0%. The Mortality rate (ICR mice [2]; 5000 mg/kg i.g. once, day 3) was 0%, the Mortality rate (ICR mice [2]; 5000 mg/kg i.g. once, day 4) was 0% and the Mortality rate (ICR mice [2]; 5000 mg/kg i.g. once, day 5) was 0%. The Mortality rate (ICR mice [2]; 5000 mg/kg i.g. once, day 6) was 0%, the Mortality rate (ICR mice [2]; 5000 mg/kg i.g. once, day 7) was 0% and the “mortality rate during the test period” value (ICR mice [2]; 3500 and 5000 mg/kg, single oral administration) was 0. For the same compound, the Sobering time (ICR mice [3]; 350 mg/kg i.g. once) was 376.35 min, the Tolerance time (ICR mice [3]; 350 mg/kg i.g. once) was 77.40 min and the Number of deaths (ICR mice [3]; 350 mg/kg i.g. once) was 0. The Number of drunks (ICR mice [3]; 350 mg/kg i.g. once) was 19, the Drunkenness rate (ICR mice [3]; 350 mg/kg i.g. once) was 95% and the Mortality rate (ICR mice [3]; 350 mg/kg i.g. once) was 0%. It also gave a Sobering time (ICR mice [3]; 1050 mg/kg i.g. once) of 214.32 min, a Tolerance time (ICR mice [3]; 1050 mg/kg i.g. once) of 193.00 min and a Number of deaths (ICR mice [3]; 1050 mg/kg i.g. once) of 1. For the same compound, the Number of drunks (ICR mice [3]; 1050 mg/kg i.g. once) was 14, the Drunkenness rate (ICR mice [3]; 1050 mg/kg i.g. once) was 70% and the Mortality rate (ICR mice [3]; 1050 mg/kg i.g. once) was 5%. For the same compound, the Sobering time (ICR mice [3]; 1050 mg/kg i.g. once, listed as dihydromyricetin) was 214 min, the “sobering time compared with the control group” value (ICR mice [3]; 1050 mg/kg, control group 324 min, statistically different) was “significantly lower” and the “solubility in chloroform and petroleum ether” value ([4]; chloroform and petroleum ether) was “hardly soluble”. For the same compound, the “solubility in ethyl acetate” value ([4]; ethyl acetate) was “very slightly soluble”, the “solubility in methanol, ethanol and acetone” value ([4]; methanol, ethanol and acetone) was “easily soluble” and the solubility in water ([4]; room temperature and cold water) was “Low solubility”.
